How the values were obtained:
C2C12 [1] = experiment: Cytotoxicity against mouse C2C12 cells assessed as reduction in cell viability at 0.3 to 10 uM by CCK8 assay; assay type: cell-based; conditions: c2c12, 10 µM
C2C12 [2] = experiment: Induction of osteoblast differentiation in mouse C2C12 cells assessed as increase in ALP expression by ALP staining based assay; assay type: functional, cell-based

Compound	Activity (C2C12 [1])	Activity (C2C12 [2])
O=c1cc(-c2ccc(O)c(O)c2)oc2cc(O)c([C@@H]3O[C@H](CO[C@@H]4OC[C@@H](O)[C@H](O)[C@H]4O)[C@@H](O)[C@H](O)[C@H]3O)c(O)c12	Non-Toxic	Dose-dependent effect
COC1=CC23/C=C/C(=O)OC[C@@H]4O[C@H](O[C@@H]5CC(C(=O)O)=C[C@@H](OC(=O)/C=C/c6cc(OC)c(c2c6)OC3C[C@H]1O)[C@H]5O)[C@@H](O)[C@H](O)[C@H]4O (stereo not given in full)	Non-Toxic	Dose-dependent effect
COc1cc(O)c2c(=O)cc(-c3ccc(O)cc3)oc2c1[C@@H]1O[C@H](CO)[C@@H](O)[C@H](O)[C@H]1O[C@@H]1O[C@@H](C)[C@H](O)[C@@H](O)[C@H]1O	Non-Toxic	Dose-dependent effect
O=c1cc(-c2ccc(O)cc2)oc2cc(O)c([C@@H]3O[C@H](CO)[C@@H](O)[C@H](O)[C@H]3O[C@@H]3OC[C@H](O)[C@H](O)[C@H]3O)c(O)c12	Non-Toxic	Dose-dependent effect
C[C@@H]1O[C@@H](O[C@H]2[C@H](O[C@H]3CC[C@@]4(C)C(=CC[C@H]5[C@@H]6C[C@@H]7O[C@]8(CC[C@@](C)(CO[C@@H]9O[C@H](CO)[C@@H](O)[C@H](O)[C@H]9O)O8)[C@@H](C)[C@@H]7[C@@]6(C)CC[C@@H]54)C3)O[C@H](CO)[C@@H](O[C@@H]3O[C@H](CO)[C@@H](O)[C@H](O[C@@H]4O[C@H](CO)[C@@H](O)[C@H](O)[C@H]4O)[C@H]3O)[C@@H]2O)[C@H](O)[C@H](O)[C@H]1O	Non-Toxic	Dose-dependent effect

From ChEMBL document CHEMBL4622908, “Two new secondary metabolites isolated from Avena sativa L. (Oat) seedlings and their effects on osteoblast differentiation” (Bioorg Med Chem Lett, 2020)
